“And” between values parts separate entries of the source, which are not always exact repeats. Equal values may be shown once.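 Step 1: Grow cells in 96-well plates. Step 2: Expose to compound for 48 hours at 5 concentrations. Step 3: Interpolate endpoints linearly; if unreached, use highest concentration. GI50: concentration for 50% inhibition of growth. The concentration for full growth arrest is given as TGI.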

The source of these data is PubChem BioAssay (NCI).

Some test systems named below: A549 NSCLC; ACHN renal; CAKI-1 renal; HCC-2998 colon; OVCAR-5 ovarian; OVCAR-8 ovarian; SNB-19 CNS; SNB-78 CNS; UACC-257 melanoma; XF 498 CNS.
Common to all, as to assay: NCI tumour cell line growth inhibition, 48 h

For the compound `CC(C)[NH-].CC(C)[NH-].O.O.[Cl][Pt+2][Cl]`, the GI50 with A549 NSCLC is 33.9 µM; with ACHN renal, 14.1 µM; in the experiment with CAKI-1 renal, 31.3 µM; with HCC-2998 colon it was 87.9 µM; in the experiment on OVCAR-5 ovarian it was 51.1 µM; with OVCAR-8 ovarian, 36.5 µM. Also, the GI50 was 70.9 µM in the experiment with SNB-19 CNS, 54.5 µM in the experiment on SNB-78 CNS, 87.4 µM in the experiment with UACC-257 melanoma and 16 µM in the experiment with XF 498 CNS. In addition, the TGI with A549 NSCLC stood at 213 µM; in the experiment on ACHN renal, 107 µM; in the experiment on CAKI-1 renal, 124 µM; with HCC-2998 colon, 220 µM; with OVCAR-5 ovarian it was 145 µM; in the experiment on OVCAR-8 ovarian, 167 µM. In addition, the TGI with SNB-19 CNS amounted to 314 µM; in the experiment with SNB-78 CNS, 375 µM; with UACC-257 melanoma it was 279 µM; with XF 498 CNS it was 51.6 µM.
As for `CC(=O)OC1CC[C@@]2(C)C(CC[C@]3(C)C2CC=C2[C@@H]4CC(C)(C)CCC4(C)CCC23C)[C@@]1(C)C(=O)O` (some centres not stated), the TGI in the experiment on A549 NSCLC is 33.9 µM; in the experiment with ACHN renal it was 30.7 µM; with CAKI-1 renal, 38.5 µM; in the experiment on HCC-2998 colon it was 35.8 µM; with OVCAR-5 ovarian, 47.5 µM; in the experiment with OVCAR-8 ovarian it was 36.9 µM. Besides, the TGI with SNB-19 CNS is 47.3 µM; with SNB-78 CNS, 48.8 µM; in the experiment with UACC-257 melanoma, 43.3 µM; with XF 498 CNS, 50.9 µM.
As to `CN(C(=O)C12C3(C(=O)C(C)(C)C)C4C5(C#N)C3C1(C(=O)C(C)(C)C)C5C42C(=O)C(C)(C)C)C(C)(C)C` (configuration not stated), the TGI in the experiment with A549 NSCLC, in the experiment on ACHN renal, with CAKI-1 renal, in the experiment on HCC-2998 colon, in the experiment with OVCAR-5 ovarian and in the experiment with OVCAR-8 ovarian was more than 50 µM throughout. In addition, the TGI in the experiment on SNB-19 CNS, with SNB-78 CNS, with UACC-257 melanoma and with XF 498 CNS was more than 50 µM throughout.
Consider `CC(=O)OC(C)(C)/C=C/C(=O)[C@](C)(O)[C@H]1[C@H](O)C[C@@]2(C)[C@@H]3CC=C4[C@@H](C[C@H](O)C(=O)C4(C)C)[C@]3(CO)C(=O)C[C@]12C`, for which the GI50 in the experiment on A549 NSCLC is 0.273 µM; with OVCAR-5 ovarian it was 0.73 µM; with SNB-19 CNS it was 0.213 µM; in the experiment with SNB-78 CNS it was 0.269 µM; in the experiment with UACC-257 melanoma it was 0.284 µM; in the experiment with XF 498 CNS, 0.108 µM. The TGI in the experiment on A549 NSCLC was 22.6 µM; with ACHN renal it was 0.882 µM and 0.844 µM; with CAKI-1 renal it was 0.564 µM and 0.66 µM; in the experiment on HCC-2998 colon, 15.1 µM; in the experiment on OVCAR-5 ovarian, 41 µM; in the experiment on OVCAR-8 ovarian, 23.8 µM. Further, the TGI was 0.58 µM and 0.559 µM with SNB-19 CNS; 0.983 µM and 3.92 µM in the experiment on SNB-78 CNS; 0.943 µM and 6.36 µM in the experiment on UACC-257 melanoma; 0.665 µM and 0.209 µM in the experiment with XF 498 CNS.
`NC(=O)C(=Cc1ccc(CP(=O)(O)O)cc1)C(N)=O`: the TGI in the experiment with A549 NSCLC, in the experiment with ACHN renal, in the experiment on CAKI-1 renal, in the experiment on HCC-2998 colon, with OVCAR-5 ovarian and in the experiment with OVCAR-8 ovarian was more than 100 µM throughout. Further, the TGI with SNB-19 CNS, with SNB-78 CNS, in the experiment on UACC-257 melanoma and in the experiment with XF 498 CNS was more than 100 µM each time.
For the compound `Nc1nc(NC2C=C(CO)C(O)C2O)c([N+](=O)[O-])c(=O)[nH]1` (configuration not stated), the TGI in the experiment on A549 NSCLC, in the experiment with ACHN renal, in the experiment on CAKI-1 renal, in the experiment with HCC-2998 colon, with OVCAR-5 ovarian and in the experiment on OVCAR-8 ovarian was more than 100 µM each time. In addition, the TGI in the experiment with SNB-19 CNS, in the experiment on SNB-78 CNS, in the experiment on UACC-257 melanoma and in the experiment with XF 498 CNS was more than 100 µM each time.
With `OC(C1CO1)C(O)C1CO1` (configuration not stated), the GI50 in the experiment on A549 NSCLC was 16.5 µM and 8.67 µM; in the experiment with CAKI-1 renal, 15 µM and 5.46 µM; in the experiment with HCC-2998 colon it was 60.5 µM; in the experiment with OVCAR-5 ovarian, 93.9 µM; in the experiment with SNB-19 CNS, 107 µM; in the experiment on UACC-257 melanoma, 56.1 µM. The TGI is 150 µM and 235 µM in the experiment on A549 NSCLC; 52.2 µM and 156 µM in the experiment on ACHN renal; 91.5 µM and 158 µM with CAKI-1 renal; 87.9 µM and 138 µM with HCC-2998 colon; 137 µM and 237 µM in the experiment on OVCAR-5 ovarian; 115 µM and 453 µM in the experiment on OVCAR-8 ovarian. Also, the TGI in the experiment on SNB-19 CNS was 139 µM and 334 µM; in the experiment with SNB-78 CNS, 150 µM; in the experiment on UACC-257 melanoma, 141 µM and 244 µM; with XF 498 CNS, 133 µM.
Take `Clc1cccc(N2CCN(CCN3CCc4c([nH]c5ccccc45)C3c3cccnc3)CC2)c1` (configuration not stated): the TGI in the experiment with A549 NSCLC is more than 100 µM; in the experiment on ACHN renal, more than 100 µM; in the experiment on CAKI-1 renal, more than 100 µM; with HCC-2998 colon it was more than 76.9 µM; in the experiment with OVCAR-5 ovarian, more than 92.1 µM; in the experiment on OVCAR-8 ovarian, more than 100 µM. Moreover, the TGI in the experiment with SNB-19 CNS, in the experiment on SNB-78 CNS, with UACC-257 melanoma and with XF 498 CNS was more than 100 µM throughout.
As for `NC(CC(=O)Nc1ccc(Cl)cc1)=Nc1ccccc1`, the TGI in the experiment with A549 NSCLC, in the experiment with ACHN renal, with CAKI-1 renal, in the experiment on HCC-2998 colon, with OVCAR-5 ovarian and with OVCAR-8 ovarian was more than 100 µM throughout. Besides, the TGI in the experiment on SNB-19 CNS, with SNB-78 CNS, in the experiment with UACC-257 melanoma and in the experiment on XF 498 CNS was more than 100 µM throughout.
